Data taken from patent publication US20260199281A1, “NEW USE OF SIVELESTAT” (SHANGHAI HUILUN PHARMACEUTICAL CO., LTD., priority 2022, published 2026).

Tests used:
[1] = system: carrageenan-induced pain models; assay: Determination of mechanical pain thresholds (electronic Von Frey Hairs), carrageenan-induced pain models; type: in vivo, SD male rats; details: for Relative value of Von Frey Hairs: single dose, mean ± SD
Method: The experimental results were expressed as “mean±standard deviation”. The data of each group were statistically analyzed using the SPSS16.0 software package to compare whether there were statistical differences among the groups. P<0.05 indicated a statistical difference. A total of 72 SD male rats aged 6 to 8 weeks, with body weights of 188-208 g, were divided into 9 groups, with 8 rats in each group. […] Then 20 mL of normal saline was added to the glass bottle. The glass bottle was placed on a magnetic stirrer, and magnetic stirring was performed for 6 hours to obtain a 3% carrageenan solution. The carrageenan solution was stored at 4° C. • 1 Fasting: no • 2 Administration route: IP (intraperitoneal injection) • 3 Administration volume: 5 mL/kg • 4 Administration frequency: single-dose administration • 5 Time of administration: administered immediately after induction Sivelestat sodium: 26 mg of sivelestat sodium (corresponding to a dosage of 10 mg/kg) was weighed. Part of normal saline was added, and sonication and vortexing were performed. The pH was adjusted with […] until a homogeneous solution was obtained, and finally, the volume was made up to 13.0 mL. Experimental samples with other dosages (30 mg/kg, 100 mg/kg) could be prepared according to the specific dosages with reference to a similar method. Parecoxib: 24 mg of parecoxib (corresponding to a dosage of 10 mg/kg) was weighed. Part of normal saline was added, and sonication and vortexing were performed. The pH was adjusted with 10 mol NaOH until a homogeneous solution was obtained, and finally, the volume was made up to 12.0 mL. Experimental samples with other dosages (20 mg/kg) could be prepared according to the specific dosages with reference to a similar method. Samples of other COX-2 inhibitors were prepared with reference to the similar method described above. [table] The animals were placed in a specially designed multi-unit metal mesh cage for pain detection, and allowed to acclimate to the environment for 10 minutes. After the grooming and exploratory activities of the animals ceased and the animals adapted to the detection environment, the sole of the hind limb on the side where carrageenan was injected in the rats was stimulated with electronic Von Frey Hairs. […] The value of the Von Frey Hairs at this time, which was the threshold of the mechanical pain response, was recorded with “gram” as the unit of detection. The detection was repeated twice. Then the mean value was taken as the final detection index. The determination of mechanical pain thresholds was performed at a total of 5 time points, including before administration and 1 h, 3 h, 4 h and 6 h after administration.

[2] = system: carrageenan-induced pain models; assay: Determination of thermal radiation (thermal pain threshold), carrageenan-induced pain models; type: in vivo, SD male rats; details: for Relative value of thermal radiation: single dose, mean ± SD
Method: The experimental results were expressed as “mean±standard deviation”. The data of each group were statistically analyzed using the SPSS16.0 software package to compare whether there were statistical differences among the groups. P<0.05 indicated a statistical difference. A total of 72 SD male rats aged 6 to 8 weeks, with body weights of 188-208 g, were divided into 9 groups, with 8 rats in each group. […] Then 20 mL of normal saline was added to the glass bottle. The glass bottle was placed on a magnetic stirrer, and magnetic stirring was performed for 6 hours to obtain a 3% carrageenan solution. The carrageenan solution was stored at 4° C. • 1 Fasting: no • 2 Administration route: IP (intraperitoneal injection) • 3 Administration volume: 5 mL/kg • 4 Administration frequency: single-dose administration • 5 Time of administration: administered immediately after induction Sivelestat sodium: 26 mg of sivelestat sodium (corresponding to a dosage of 10 mg/kg) was weighed. Part of normal saline was added, and sonication and vortexing were performed. The pH was adjusted with […] until a homogeneous solution was obtained, and finally, the volume was made up to 13.0 mL. Experimental samples with other dosages (30 mg/kg, 100 mg/kg) could be prepared according to the specific dosages with reference to a similar method. Parecoxib: 24 mg of parecoxib (corresponding to a dosage of 10 mg/kg) was weighed. Part of normal saline was added, and sonication and vortexing were performed. The pH was adjusted with 10 mol NaOH until a homogeneous solution was obtained, and finally, the volume was made up to 12.0 mL. Experimental samples with other dosages (20 mg/kg) could be prepared according to the specific dosages with reference to a similar method. Samples of other COX-2 inhibitors were prepared with reference to the similar method described above. [table] The animals were placed in a transparent plastic box, and could be allowed to acclimatize for 10 minutes before the test. The middle of the plantar surface of the hind limb on the side where carrageenan was injected in the rats was irradiated with a radiant heat light source to determine their thermal pain threshold. The detection was repeated twice. Then the mean value was taken as the final detection index.

[3] = system: carrageenan-induced pain models; assay: Determination of paw swelling volumes, carrageenan-induced pain models; type: in vivo, SD male rats; details: for Relative value of paw volumes: single dose, mean ± SD
Method: The experimental results were expressed as “mean±standard deviation”. The data of each group were statistically analyzed using the SPSS16.0 software package to compare whether there were statistical differences among the groups. P<0.05 indicated a statistical difference. A total of 72 SD male rats aged 6 to 8 weeks, with body weights of 188-208 g, were divided into 9 groups, with 8 rats in each group. […] Then 20 mL of normal saline was added to the glass bottle. The glass bottle was placed on a magnetic stirrer, and magnetic stirring was performed for 6 hours to obtain a 3% carrageenan solution. The carrageenan solution was stored at 4° C. • 1 Fasting: no • 2 Administration route: IP (intraperitoneal injection) • 3 Administration volume: 5 mL/kg • 4 Administration frequency: single-dose administration • 5 Time of administration: administered immediately after induction Sivelestat sodium: 26 mg of sivelestat sodium (corresponding to a dosage of 10 mg/kg) was weighed. Part of normal saline was added, and sonication and vortexing were performed. The pH was adjusted with […] until a homogeneous solution was obtained, and finally, the volume was made up to 13.0 mL. Experimental samples with other dosages (30 mg/kg, 100 mg/kg) could be prepared according to the specific dosages with reference to a similar method. Parecoxib: 24 mg of parecoxib (corresponding to a dosage of 10 mg/kg) was weighed. Part of normal saline was added, and sonication and vortexing were performed. The pH was adjusted with 10 mol NaOH until a homogeneous solution was obtained, and finally, the volume was made up to 12.0 mL. Experimental samples with other dosages (20 mg/kg) could be prepared according to the specific dosages with reference to a similar method. Samples of other COX-2 inhibitors were prepared with reference to the similar method described above. [table] To measure the paw swelling volumes (paw volumes) of experimental rats, the animals were gently held with one hand, and their hind paws were placed into the instrument used to measure the paw volumes with the other hand. The size of the paw volume was recorded. The measurement was repeated twice, and the mean value was taken as the paw volume of the animals.

[4] = system: rat models of post-operative pain; assay: Mechanical hyperalgesia test in rat models of post-operative pain; type: in vivo, Male SD rats; details: used alone, i.p., single dose
Method: Male SD rats were acclimated to the test environment for 3 days before modeling. On the day of modeling, the animals were anesthetized with Zoletil 50+xylazine hydrochloride (20 mg/kg+8 mg/kg, intraperitoneal injection). A longitudinal incision of approximately 1 cm in length was made towards the toes at a position 0.7-0.8 cm from the heel of the left hind paw of the animals. After the skin was incised, the flexor digitorum brevis muscle was lifted, and a longitudinal blunt injury was inflicted. On the first day after the operation, the model animals were randomly divided into 7 groups according to the baseline values of mechanical hyperalgesia.
Two-way analysis of variance with the Bonferroni's multiple comparison test was performed.

[5] = 10 mg/kg intraperitoneal, 1 hour after administration
[6] = 10 mg/kg intraperitoneal, 3 hours after administration
[7] = 10 mg/kg intraperitoneal, 4 hours after administration
[8] = 10 mg/kg intraperitoneal, 6 hours after administration
[9] = 20 mg/kg intraperitoneal, 1 hour after administration
[10] = 20 mg/kg intraperitoneal, 3 hours after administration
[11] = 20 mg/kg intraperitoneal, 4 hours after administration
[12] = 20 mg/kg intraperitoneal, 6 hours after administration
[13] = 30 mg/kg intraperitoneal, 1 hour after administration
[14] = 30 mg/kg intraperitoneal, 3 hours after administration
[15] = 30 mg/kg intraperitoneal, 4 hours after administration
[16] = 30 mg/kg intraperitoneal, 6 hours after administration
[17] = 100 mg/kg intraperitoneal, 1 hour after administration
[18] = 100 mg/kg intraperitoneal, 3 hours after administration
[19] = 100 mg/kg intraperitoneal, 4 hours after administration
[20] = 100 mg/kg intraperitoneal, 6 hours after administration
[21] = used alone at 10, 30 and 100 mg/kg

CCC(=O)NS(=O)(=O)c1ccc(-c2c(-c3ccccc3)noc2C)cc1 [parecoxib]
Relative value of Von Frey Hairs [1, 5]: 13.6 ± 5.9 %
Relative value of Von Frey Hairs [1, 6]: 16.4 ± 4.2 %
Relative value of Von Frey Hairs [1, 7]: 15.1 ± 4.5 %
Relative value of Von Frey Hairs [1, 8]: 11.9 ± 5.8 %
Relative value of Von Frey Hairs [1, 9]: 13.7 ± 7.5 %
Relative value of Von Frey Hairs [1, 10]: 17.3 ± 7.9 %
Relative value of Von Frey Hairs [1, 11]: 16.2 ± 4.2 %
Relative value of Von Frey Hairs [1, 12]: 12.4 ± 3.9 %
Relative value of thermal radiation [2, 5]: 34.6 ± 18.9 %
Relative value of thermal radiation [2, 6]: 16.6 ± 16.7%
Relative value of thermal radiation [2, 7]: 22.7 ± 13.8 %
Relative value of thermal radiation [2, 8]: 14.6 ± 11.0 %
Relative value of thermal radiation [2, 9]: 45.8 ± 25.1 %
Relative value of thermal radiation [2, 10]: 58.5 ± 22.3 %
Relative value of thermal radiation [2, 11]: 37.4 ± 26.7%
Relative value of thermal radiation [2, 12]: 38.0 ± 11.0 %
Relative value of paw volumes [3, 5]: 4.34 ± 25.02%
Relative value of paw volumes [3, 6]: 24.76 ± 11.32 %
Relative value of paw volumes [3, 7]: 22.58 ± 18.82 %
Relative value of paw volumes [3, 8]: 20.81 ± 12.66 %
Relative value of paw volumes [3, 9]: 18.58 ± 45.76%
Relative value of paw volumes [3, 10]: 31.45 ± 25.56 %
Relative value of paw volumes [3, 11]: 19.47 ± 23.41%
Relative value of paw volumes [3, 12]: 23.95 ± 15.74 %

CC(C)(C)C(=O)Oc1ccc(S(=O)(=O)Nc2ccccc2C(=O)NCC(=O)O)cc1 [sivelestat sodium]
Relative value of Von Frey Hairs [1, 5]: 17.1 ± 5.5 %
Relative value of Von Frey Hairs [1, 6]: 15.3 ± 5.9 %
Relative value of Von Frey Hairs [1, 7]: 11.5 ± 6.1 %
Relative value of Von Frey Hairs [1, 8]: 4.8 ± 4.4 %
Relative value of Von Frey Hairs [1, 13]: 18.9 ± 5.9 %
Relative value of Von Frey Hairs [1, 14]: 15.6 ± 7.5 %
Relative value of Von Frey Hairs [1, 15]: 15.2 ± 4.2 %
Relative value of Von Frey Hairs [1, 16]: 4.1 ± 5.0%
Relative value of Von Frey Hairs [1, 17]: 20.4 ± 3.9 %
Relative value of Von Frey Hairs [1, 18]: 18.1 ± 3.7 %
Relative value of Von Frey Hairs [1, 19]: 15.5 ± 4.3 %
Relative value of Von Frey Hairs [1, 20]: 7.9 ± 4.5 %
analgesic efficacy in the mechanical pain threshold test [1, 21]: significant analgesic efficacy
effect on post-operative pain (mechanical hyperalgesia) [4]: significant effect
Relative value of thermal radiation [2, 5]: 10.3 ± 28.7%
Relative value of thermal radiation [2, 6]: 19.8 ± 14.0 %
Relative value of thermal radiation [2, 7]: 3.7 ± 5.1%
Relative value of thermal radiation [2, 8]: 4.2 ± 6.2%
Relative value of thermal radiation [2, 13]: 20.9 ± 39.4%
Relative value of thermal radiation [2, 14]: 18.0 ± 21.4%
Relative value of thermal radiation [2, 15]: 4.0 ± 9.3%
Relative value of thermal radiation [2, 16]: 9.2 ± 4.4%
Relative value of thermal radiation [2, 17]: 24.0 ± 41.2%
Relative value of thermal radiation [2, 18]: 22.3 ± 18.0 %
Relative value of thermal radiation [2, 19]: 13.1 ± 11.0%
Relative value of thermal radiation [2, 20]: 5.4 ± 8.1%
analgesic efficacy in the thermal pain threshold test ([2]; used alone at 10 mg/kg and 100 mg/kg, 3 hours after administration): significant analgesic efficacy
Relative value of paw volumes [3, 5]: 4.86 ± 19.10%
Relative value of paw volumes [3, 6]: 8.96 ± 13.90%
Relative value of paw volumes [3, 7]: 1.67 ± 15.59%
Relative value of paw volumes [3, 8]: 3.70 ± 14.04%
Relative value of paw volumes [3, 13]: 20.49 ± 41.12%
Relative value of paw volumes [3, 14]: 17.37 ± 17.14%
Relative value of paw volumes [3, 15]: 14.09 ± 18.97%
Relative value of paw volumes [3, 16]: 14.94 ± 18.68%
anti-inflammatory effect (paw volumes) ([3]; 100 mg/kg alone, 6 h after administration): significant anti-inflammatory effect
Relative value of paw volumes [3, 17]: 3.99 ± 24.23%
Relative value of paw volumes [3, 18]: 18.24 ± 11.26%
Relative value of paw volumes [3, 19]: 13.64 ± 15.23%
Relative value of paw volumes [3, 20]: 19.27 ± 11.40 %
anti-inflammatory effect (paw volumes) compared with the model group [3, 21]: a certain anti-inflammatory effect
